# ChEMBL document CHEMBL5104126, “Discovery of 2,3-dihydro-1H-pyrrolo[3,4-b]quinolin-1-one derivatives as possible antileishmanial agents” (RSC Med Chem, 2022)
# Tests used:
# J774 [1] = test: Cytotoxicity against mouse macrophage J774 cells assessed as reduction in cell viability at 50 to 100 uM incubated for 72 hrs by MTT assay; assay type: toxicity, cell-based; details: j774, 72 h, dose 50-100 µM
# J774 [2] = test: Cytotoxicity against mouse macrophage J774 cells assessed as reduction in cell viability at 6.25 to 25 uM incubated for 72 hrs by MTT assay; assay type: toxicity, cell-based; details: j774, 72 h, dose 6.25-25 µM
# Leishmania donovani [3] = test: Antileishmanial activity against Leishmania donovani MHOM/IN/80/Dd8 promastigotes harboring luciferase gene infected in mouse J774 cells assessed as inhibition of parasite viability at 25 uM incubated for 72 hrs by Steady-Glo reagent based luciferase assay relative to control; assay type: functional; details: MHOM/IN/80/Dd8, J774
# Leishmania donovani [4] = test: Antileishmanial activity against Leishmania donovani MHOM/IN/80/Dd8 amastigotes harboring luciferase gene infected in mouse J774 cells assessed as inhibition of parasite viability at 25 uM incubated for 72 hrs by Steady-Glo reagent based luciferase assay relative to control; assay type: functional; details: MHOM/IN/80/Dd8, J774
# Leishmania donovani [5] = test: Antileishmanial activity against Leishmania donovani MHOM/IN/80/Dd8 amastigotes harboring luciferase gene infected in mouse J774 cells assessed as inhibition of parasite viability incubated for 72 hrs by Steady-Glo reagent based luciferase assay relative to control; assay type: functional, organism-based; details: MHOM/IN/80/Dd8, J774, 72 h
# Leishmania mexicana = test: Antileishmanial activity against Leishmania mexicana 227 assessed as inhibition of parasite viability; assay type: functional, organism-based
# Leishmania donovani [6] = test: Antileishmanial activity against Leishmania donovani MHOM/IN/80/Dd8 promastigotes harboring luciferase gene infected in mouse J774 cells assessed as inhibition of parasite viability incubated for 72 hrs by Steady-Glo reagent based luciferase assay relative to control; assay type: functional, organism-based; details: MHOM/IN/80/Dd8, J774, 72 h
# [7] = Cytotoxicity against mouse macrophage J774 cells assessed as inhibition of cell viability incubated for 72 hrs by MTT assay; assay type: toxicity, cell-based
# [8] = Cytotoxicity against human HepG2 cells assessed as inhibition of cell viability incubated for 72 hrs by MTT assay; assay type: toxicity, cell-based
# [9] = Selectivity index, ratio of CC50 for cytotoxicity against mouse macrophage J774 cells to IC50 for antileishmanial activity against Leishmania donovani MHOM/IN/80/Dd8 amastigotes harboring luciferase gene infected in mouse J774 cells; assay type: toxicity, cell-based; details: read-out: Ratio CC50/IC50
# [10] = Selectivity index, ratio of CC50 for cytotoxicity against human HepG2 cells to IC50 for antileishmanial activity against Leishmania donovani MHOM/IN/80/Dd8 amastigotes harboring luciferase gene infected in mouse J774 cells; assay type: toxicity, cell-based; details: read-out: Ratio CC50/IC50
# Leishmania donovani [11] = test: Antileishmanial activity against Leishmania donovani MHOM/IN/80/Dd8 promastigotes infected in Balb/c mouse assessed as inhibition organ parasite burden in liver at 25 mg/kg, ip for 7 days by Giemsa staining based microscopy; assay type: functional; details: MHOM/IN/80/Dd8, 168 h, time 7 day
# Leishmania donovani [12] = test: Antileishmanial activity against Leishmania donovani MHOM/IN/80/Dd8 promastigotes infected in Balb/c mouse assessed as inhibition organ parasite burden in spleen at 25 mg/kg, ip for 7 days by Giemsa staining based microscopy; assay type: functional; details: MHOM/IN/80/Dd8, 168 h, time 7 day
Structure (SMILES),Activity (J774 [1]),Activity (J774 [2]),inhibition at 25 µM (Leishmania donovani [3]),inhibition at 25 µM (Leishmania donovani [4]),other results
COc1ccc2nc3c(c(-c4ccccc4)c2c1)C(=O)N(C(C(=O)NC(C)(C)C)c1ccc(O)cc1)C3 (stereo unspecified),>= 30%,Non-Toxic,40%,45%,–
COc1ccc2nc3c(c(-c4ccccc4)c2c1)C1=NC(=O)C(c2ccc(Br)cc2)N1C3 (stereo unspecified),>= 30%,Non-Toxic,39%,31%,–
CC(C)(C)NC(=O)C(C)(C)N1Cc2nc3ccccc3c(-c3ccccc3)c2C1=O,>= 30%,Non-Toxic,40%,45%,–
COc1ccc2nc3c(c(-c4ccccc4)c2c1)C(=O)N(C1(C(=O)NC(C)(C)C)CCCC1)C3,>= 30%,Non-Toxic,40%,45%,–
COc1ccc2nc3c(c(-c4ccccc4)c2c1)C1=NC(=O)C(c2cc(OC)c(OC)c(OC)c2)N1C3 (stereo unspecified),>= 30%,Non-Toxic,39%,31%,–
CC(C)(C(N)=O)N1Cc2nc3ccccc3c(-c3ccccc3)c2C1=O,>= 30%,Non-Toxic,61%,46%,–
COc1ccc2nc3c(c(C)c2c1)C(=O)N(C(C)(C)C(=O)NC(C)(C)C)C3,>= 30%,Non-Toxic,> 70%,45%,IC50 (Leishmania donovani [5]): 7.42 µM
COc1ccc2nc3c(c(-c4ccccc4)c2c1)C(=O)N(CC(=O)NC(C)(C)C)C3,>= 30%,Non-Toxic,40%,45%,IC50 (Leishmania donovani [5]): 8.39 µM
COc1ccc2nc3c(c(-c4ccccc4)c2c1)C(=O)N(C(C(=O)NC(C)(C)C)c1ccc(F)cc1)C3 (stereo unspecified),>= 30%,Non-Toxic,40%,45%,–
COc1ccc2nc3c(c(-c4ccccc4)c2c1)C1=NC(=O)C(C)(C)N1C3,>= 30%,Non-Toxic,39%,31%,–
COc1ccc2nc3c(c(-c4ccccc4)c2c1)C(=O)N(C1(C(=O)NC(C)(C)C)CCCCC1)C3,>= 30%,Non-Toxic,> 70%,45%,IC50 (Leishmania donovani [5]): 5.35 µM
CC1(C)C(=O)N=C2c3c(nc4ccc(Br)cc4c3-c3ccccc3)CN21,>= 30%,Non-Toxic,39%,31%,–
COc1ccc2nc3c(c(-c4ccccc4)c2c1)C1=NC(=O)C2(CCCC2)N1C3,>= 30%,Non-Toxic,39%,31%,–
COc1ccc2nc3c(c(-c4ccccc4)c2c1)C(=O)N(C(C(=O)NC(C)(C)C)c1cc(OC)c(OC)c(OC)c1)C3 (stereo unspecified),>= 30%,Non-Toxic,40%,45%,–
COc1ccc2nc3c(c(-c4ccccc4)c2c1)C(=O)N(C(C(=O)NC(C)(C)C)c1ccc(C#N)cc1)C3 (stereo unspecified),>= 30%,Non-Toxic,40%,45%,–
CC(C)(C(N)=O)N1Cc2nc3ccc(Cl)cc3c(-c3ccccc3)c2C1=O,>= 30%,Non-Toxic,61%,46%,–

Structure (SMILES),Activity (J774 [1]),Activity (J774 [2]),inhibition at 25 µM (Leishmania donovani [3]),inhibition at 25 µM (Leishmania donovani [4]),other results
CC(C)(C)NC(=O)C(C)(C)N1Cc2nc3ccc(Br)cc3c(-c3ccccc3)c2C1=O,>= 30%,Non-Toxic,> 70%,45%,IC50 (Leishmania donovani [5]): 10.3 µM
COc1ccc2nc3c(c(-c4ccccc4)c2c1)C(=O)N(C(C(N)=O)c1ccc(F)cc1)C3 (stereo unspecified),>= 30%,Non-Toxic,61%,46%,IC50 (Leishmania donovani [5]): 8.75 µM
COc1ccc2nc3c(c(-c4ccccc4)c2c1)C1=NC(=O)C(c2ccc(Cl)cc2)N1C3 (stereo unspecified),>= 30%,Non-Toxic,39%,31%,–
CC(C)(C)NC(=O)C(C)(C)N1Cc2nc3ccc(O)cc3c(-c3ccccc3)c2C1=O,>= 30%,Non-Toxic,77.2%,69%,–
COc1ccc2nc3c(c(-c4ccccc4)c2c1)C(=O)N(C(C(=O)NC(C)(C)C)c1ccccc1)C3 (stereo unspecified),>= 30%,Non-Toxic,> 70%,45%,–
CCCCCCOc1c(OC)cc(NC(C)CCCN)c2nccc(C)c12 (stereo unspecified) [WR-242511],–,–,–,–,IC50 (Leishmania mexicana): 2.5 µM
CCCCCCCCCCCCCCCCOP(=O)([O-])OCC[N+](C)(C)C [MILTEFOSINE],–,–,–,–,IC50 (Leishmania donovani [5]): 6.86 µM; IC50 (Leishmania donovani [6]): 6.12 µM; CC50 at 72 h [7]: 72.4 µM; CC50 at 72 h [8]: 78.6 µM; selectivity ratio [9]: 11.8; selectivity ratio [10]: 12.8; inhibition in vivo at 25 mg/kg (Leishmania donovani [11]): 97.4%; inhibition in vivo at 25 mg/kg (Leishmania donovani [12]): 98.9%
COc1ccc2nc3c(c(-c4ccccc4)c2c1)C1=NC(=O)C(c2ccc(C#N)cc2)N1C3 (stereo unspecified),>= 30%,Non-Toxic,39%,31%,–
COc1ccc2nc3c(c(-c4ccccc4)c2c1)C(=O)N(C(C)(C)C(=O)NC(C)(C)C)C3,>= 30%,Non-Toxic,40%,45%,–
COc1ccc2nc3c(c(-c4ccccc4)c2c1)C1=NC(=O)C(c2ccccc2)N1C3 (stereo unspecified),>= 30%,Non-Toxic,39%,31%,–
COc1ccc2nc3c(c(-c4ccccc4)c2c1)C(=O)N(C(C(=O)NC(C)(C)C)c1ccc(Cl)cc1)C3 (stereo unspecified),>= 30%,Non-Toxic,40%,45%,IC50 (Leishmania donovani [5]): 10.5 µM
COc1ccc2nc3c(c(-c4ccccc4)c2c1)C(=O)N(C(C(=O)NC(C)(C)C)c1ccc(C(F)(F)F)cc1)C3 (stereo unspecified),>= 30%,Non-Toxic,> 70%,45%,–
COc1ccc(C(C(=O)NC(C)(C)C)N2Cc3nc4ccc(OC)cc4c(-c4ccccc4)c3C2=O)cc1 (stereo unspecified),>= 30%,Non-Toxic,40%,45%,–
COc1ccc2nc3c(c(-c4ccccc4)c2c1)C1=NC(=O)C2(CCCCC2)N1C3,>= 30%,Non-Toxic,39%,31%,–
CC(C)(C)NC(=O)C(c1ccc(F)cc1)N1Cc2nc3ccc(O)cc3c(-c3ccccc3)c2C1=O (stereo unspecified),>= 30%,Non-Toxic,72.7%,69%,–
